{"source": "patent US20040106093A1", "about": "“Myb-transformed blood cells and their use for active ingredient screening” (priority 2001, published 2004)", "format_in_all_cases": "cell-based, chicken", "key": {"[1]": {"system": "bFGF/v-myb-cells", "assay": "Proliferation assay of bFGF-stimulated bFGF/v-myb-cells with specific signalling inhibitors (3H-thymidine incorporation)", "conditions": "bFGF 25 ng/ml, FIG. 5B; for effect on bFGF induced bFGF/v-myb cell proliferation: proliferation without inhibitor set 100%, C; for reduction of bFGF induced bFGF/v-myb cell proliferation: GF 109203X 10 nM, Cyclosporin A 10 nM, KN-62 1 μM (methods)", "description": "(§1) Cell proliferation was measured as ratio of DNA-synthesis by ^3H-thymidin-incorporation or use CellTiter96® (Promega). Briefly, the cells (4×10^4 cells/100 μl) were incubated in CFU-E-Medium (see above) with 0.8 μCi ^3H-thymidine (specific activity 29 Ci/mmol; Amersham, UK) for 2 hours at 37° C., brought onto filter plates and subjected to scintillation counting. The average values from triplicate samples were determined. The Celltiter96 MTS-assay was for 2 hours. Heparin (B. Braun, Melsungen, Germany) was used at 5 μg/ml. Inhibitors were used at the following concentrations: PD98059 (5 μM), PP2 (100 nM), U-73122 (1 μM), Worthmannin (100 nM), Cyclosporin A (10 nM), GF 109203X (10 nM) and KN-62 (1 μM) (all from Calbiochem).\n(B) The bFGF/v-myb-cells were stimulated with bFGF and with specific inhibitors (for details see methods). Cell proliferation was measured in (A) per cent of proliferation in response to bFGF (25 ng/ml) and specific inhibitor is shown. Proliferation without inhibitor was arbitrarily set 100%.\n(C) Dose response curve of the PLCy inhibitor U-73122 on bFGF/v-myb-cells in the presence of bFGF (25 ng/ml). Cell proliferation was measured by ^3H-thymidine incorporation assay as in (A). Two independent experiments arc shown."}, "[2]": {"system": "blastoderm derived bFGF/v-myb-cells", "assay": "Growth factor requirements of blastoderm derived v-myb cells in culture", "conditions": "bFGF 25 ng/ml, SCF 100 ng/ml, TGFα 5 ng/ml; factor alone; FIG. 2B", "description": "Blastoderm-derived cells (2 days incubation, Hamilton-stage HH 10-12) and bone marrow cells ([…]) were cocultivated for 2 days with a mitomycin C-treated virus or control (non-infected)-CEF in a CFU-E-medium (Beug et al., 1995, Methods Enzymol, 254, 41-76) containing bFGF (25 ng/ml, Promega), chicken-SCF (100 ng/ml; Bartunek et al., 1996, Cytokine, 8, 14-20), TGFα (5 ng/ml, Promega) or different combinations thereof, or no factors. After 2 days nonadherent cells were regenerated and cells were grown at 2×10^6 cells/ml. An outgrowth of myb transformed cells was routinely observed at day 5-7 and cell numbers were determined in regular time intervals using the cell counter and analyser system CASY-1 (Scharfe System, Reutlingen, Germany).\n(B) Growth factor requirements of bFGF/v-myb-cells. The cumulative number of cells gown with various factors and combinations thereof are shown. Closed and open symbols refer to cells with an erythroid and myeloid phenotype, respectively."}, "[3]": {"system": "bFGF/v-myb-cells", "assay": "FGF dose response in cell proliferation assay (MTT / 3H-thymidine incorporation)", "conditions": "for proliferative (mitogenic) response in the presence of heparin: heparin 5 μg/ml, 3H-thymidine incorporation, FIG. 5A; for stimulation of bFGF/v-myb-cell proliferation: serial dilutions starting at 100 ng/ml, without heparin, FIG. 4", "description": "as §1\nFGF—dose response measured by cell proliferation assay (MTT). Serial dilutions of aFGF and bFGF, respectively, starting at 100 ng/ml are shown.\n(A) Dose response curve of aFGF and bFGF in the presence or absence of heparin is shown. Cell proliferation was measured by ^3H-thymidine incorporation assay."}, "[4]": {"system": "bFGF/v-myb-cells", "assay": "Erythroid differentiation assay (anaemic serum plus insulin)", "description": "To produce erythroid differentiation, cells were incubated in CFU-E-medium without ChS (2×10^6 cells/ml) supplemented with 3% anaemic chicken serum (as source for erythropoietin) plus 10 ng/ml recombinant human insulin (Novo Nordisk) in the presence or absence of 25 ng/ml bFGF. Erythroid differentiation was assessed by (1) determining haemoglobin accumulation in cytospin preparations that stained with neutral, and Diff-Quik (Baxter, Switzerland), or in haemoglobin assay (Beug et al., 1995, Methods Enzymol, 254, 41-76) (2), measuring reduction in cell size with the CASY-1 Cell Counter and Analyser System; and (3) loss of proliferative potential in ^3H-thymidine incorporation assays. Photographs were taken and processed as above.\nDifferentiation properties of bFGF/v-myb erythroid progenitor cells. Kinetics of the different differentiation parameters of bFGF/v-myb-cells. The number of cells, the cell volume, and the amount of haemoglobin were estimated during the 4-day differentiation in absence (AS, Ins) or presence of bFGF (AS, Ins+bFGF) or without factor (no). The cells remaining in bFGF are only shown as a control (bFGF)."}, "[5]": {"conditions": "differentiation induction in the presence of bFGF, FIG. 3"}}, "data": [{"compound": "CC(C)=CCC/C(C)=C/CC/C(C)=C/CSc1ccccc1C(=O)O", "note": "[FTS]", "values": [{"measurement": "effect on bFGF induced bFGF/v-myb cell proliferation", "setting": "[1]", "value": "neither Ras inhibitor FTS (inhibitor of famesylation) nor src family inhibitor PP-2 had any effect"}]}, {"compound": "CN(C)CCCn1cc(C2=C(c3c[nH]c4ccccc34)C(=O)NC2=O)c2ccccc21", "note": "[GF109203X]", "values": [{"measurement": "reduction of bFGF induced bFGF/v-myb cell proliferation", "setting": "[1]", "value": 30, "unit": "%"}]}, {"compound": "CN([C@@H](Cc1ccc(OS(=O)(=O)c2cccc3cnccc23)cc1)C(=O)N1CCN(c2ccccc2)CC1)S(=O)(=O)c1cccc2cnccc12", "note": "[KN-62]", "values": [{"measurement": "reduction of bFGF induced bFGF/v-myb cell proliferation", "setting": "[1]", "value": "Sixty per cent"}]}, {"compound": "COc1cccc(-c2cc(=O)c3ccccc3o2)c1N", "note": "[PD 98059]", "values": [{"measurement": "effect on bFGF induced bFGF/v-myb cell proliferation", "setting": "[1]", "value": "partially inhibitory only at higher concentrations"}]}, {"compound": "COc1ccc2c(c1)CC[C@@H]1[C@@H]2CC[C@]2(C)[C@@H](NCCCCCCN3C(=O)C=CC3=O)CC[C@@H]12", "note": "[U-73122]", "values": [{"measurement": "effect on bFGF induced bFGF/v-myb cell proliferation", "setting": "[1]", "value": "dramatically reduced"}]}, {"compound": "COC[C@H]1OC(=O)c2coc3c2[C@@]1(C)C1=C(C3=O)[C@@H]2CCC(=O)[C@@]2(C)C[C@H]1OC(C)=O", "note": "[Worthmannin]", "values": [{"measurement": "effect on bFGF induced bFGF/v-myb cell proliferation", "setting": "[1]", "value": "ineffective"}]}, {"compound": "CC1(C)C(C=C(Cl)Cl)C1C(=O)OC(C#N)c1cccc(Oc2ccccc2)c1", "note": "(centres unmarked) [cypermethrin]", "values": [{"measurement": "reduction of bFGF induced bFGF/v-myb cell proliferation", "setting": "[1]", "value": 45, "unit": "%"}]}, {"compound": "TGFα: growth factor TGFα", "values": [{"measurement": "phenotype / outgrowth of v-myb cells with growth factor", "setting": "[2]", "value": "outgrowth exclusively of myeloid cells"}]}, {"compound": "aFGF: acidic FGF, FGF-1, member of the FGF family", "values": [{"measurement": "proliferative (mitogenic) response in the presence of heparin", "setting": "[3]", "value": "clear enhancement"}, {"measurement": "stimulation of bFGF/v-myb-cell proliferation", "setting": "[3]", "value": "only marginally if at all"}]}, {"compound": "bFGF: growth factor bFGF (basis fibroblast growth factor)", "values": [{"measurement": "phenotype / outgrowth of v-myb cells with growth factor", "setting": "[2]", "value": "proliferating erythroid bFGF/v-myb-cells were obtained only in the presence of bFGF"}, {"measurement": "proliferative (mitogenic) response in the presence of heparin", "setting": "[3]", "value": "no further increase"}, {"measurement": "stimulation of bFGF/v-myb-cell proliferation", "setting": "[3]", "value": "induced a maximal stimulation"}, {"measurement": "ability to undergo terminal erythroid differentiation", "setting": "[4]; differentiation induced by anaemic serum and insulin in the presence of 25 ng/ml bFGF", "value": "completely blocked"}, {"measurement": "cell volume", "setting": "[4]; [5]", "value": "approximately 500 μl"}, {"measurement": "haemoglobin accumulation", "setting": "[4]; [5]", "value": "did not accumulate haemoglobin"}]}, {"compound": "cyclosporine A", "values": [{"measurement": "reduction of bFGF induced bFGF/v-myb cell proliferation", "setting": "[1]", "value": 45, "unit": "%"}]}]}
